US8623909B2, “Prophylactic/therapeutic agents for lifestyle-related diseases” (priority 2008, dated 2014)
Marks after values point to notes of the source that are not given here.

What was measured:
PSA mRNA in LNCaP cells = assay: PSA mRNA expression level in LNCaP cells (real-time PCR); format: cell-based, human; conditions: 10^−5M, 24 hours, control (DMSO) 1.0
Description: (§1) 1) Extraction of Total RNA
(§2) After respectively culturing the LNCaP cells and NIH-3T3-L1 cells co-transfected in 1) to 3) above in 6-well plates, the cells were cultured for 24 hours in EMEM or RPMI 1640 containing 10% fetal calf serum treated with dextran-charcoal and a test compound (dissolved in a small amount of DMSO). Subsequently, total RNA was respectively extracted using Isogen (Wako Pure Chemical Industries).
(§3) 5 μg aliquots of each total RNA obtained in 1) above were reverse-transcribed to first strand cDNA using a Superscript III Kit (Invitrogen) and brought to a final volume of 20 μL. Real-time PCR was carried out using LightCycler FastStart DNA Master SYBR Green I (Roche Diagnostic) in order to quantify expression of PSA mRNA in LNCaP cells and UCP-1 mRNA in NIH-3T3-L1 cells. PCR was carried out under the following conditions in 20 μL of reaction mixture: 50 cycles consisting of denaturing for 3 seconds at 95° C., annealing for 10 seconds at 60° C. and elongating for 25 seconds at 72° C. β-actin mRNA was also simultaneously amplified for use as an internal standard. Real-time PCR value for each transcription product were calculated as a relative ratio to β-actin.

[1] = tested on: UCP-1 mRNA in NIH-3T3-L1 cells; assay: UCP-1 mRNA expression level in NIH-3T3-L1 cells (real-time PCR); format: cell-based, mouse; conditions: 10^−5M, 24 hours, control (DMSO) 1.0
Description: as §1, §2, §3

B6 mice on high-fat diet [2] = assay: High-fat diet B6 mice, 16 weeks (body weight, serum glucose, serum insulin, food intake, visceral fat); format: in vivo, mouse; conditions: 10 mg/kg s.c. every other day
Description: (§4) 9-week-old B6 mice were divided into a control group, high-fat diet group and high-fat diet+compound of formula (Ia) group of 10 animals each, and housed and observed for 16 weeks. During this period, the compound of formula (Ia) was subcutaneously injected at 10 mg/kg every other day, body weights were measured once a week, and food intake was measured once every 4 weeks.
After 16 weeks, the body weights, bone mineral densities, fat distributions and exercise levels of the mice were measured, followed by collecting blood samples and finally sacrificing the animals and collecting their organs. The average value of body weight, serum glucose concentration and serum insulin concentration of each group after 16 weeks are shown in the following Table 17.

B6 mice on high-fat diet [3] = assay: Glucose tolerance test in high-fat diet B6 mice; format: in vivo, mouse; conditions: high-fat diet mice after 16 weeks, glucose 1 g/kg
Description: as §4
In addition, glucose tolerance tests were also carried out on the mice after housing for 16 weeks. The mice were divided into groups of 5 mice each, injected at 1 g/kg, and glucose value was then measured over time.

GFP-AR [4] = molecular target: T1, GFP-AR (Homo sapiens, UniProt P10275); assay: Subnuclear localization of GFP-AR in LNCaP cells; format: cell-based; parameters: expressed in transfected cells; host or cells: LNCaP cells; conditions: 10^−5 M, observed 3 hours later, FIG. 2
T1 sequence (P10275 1-920): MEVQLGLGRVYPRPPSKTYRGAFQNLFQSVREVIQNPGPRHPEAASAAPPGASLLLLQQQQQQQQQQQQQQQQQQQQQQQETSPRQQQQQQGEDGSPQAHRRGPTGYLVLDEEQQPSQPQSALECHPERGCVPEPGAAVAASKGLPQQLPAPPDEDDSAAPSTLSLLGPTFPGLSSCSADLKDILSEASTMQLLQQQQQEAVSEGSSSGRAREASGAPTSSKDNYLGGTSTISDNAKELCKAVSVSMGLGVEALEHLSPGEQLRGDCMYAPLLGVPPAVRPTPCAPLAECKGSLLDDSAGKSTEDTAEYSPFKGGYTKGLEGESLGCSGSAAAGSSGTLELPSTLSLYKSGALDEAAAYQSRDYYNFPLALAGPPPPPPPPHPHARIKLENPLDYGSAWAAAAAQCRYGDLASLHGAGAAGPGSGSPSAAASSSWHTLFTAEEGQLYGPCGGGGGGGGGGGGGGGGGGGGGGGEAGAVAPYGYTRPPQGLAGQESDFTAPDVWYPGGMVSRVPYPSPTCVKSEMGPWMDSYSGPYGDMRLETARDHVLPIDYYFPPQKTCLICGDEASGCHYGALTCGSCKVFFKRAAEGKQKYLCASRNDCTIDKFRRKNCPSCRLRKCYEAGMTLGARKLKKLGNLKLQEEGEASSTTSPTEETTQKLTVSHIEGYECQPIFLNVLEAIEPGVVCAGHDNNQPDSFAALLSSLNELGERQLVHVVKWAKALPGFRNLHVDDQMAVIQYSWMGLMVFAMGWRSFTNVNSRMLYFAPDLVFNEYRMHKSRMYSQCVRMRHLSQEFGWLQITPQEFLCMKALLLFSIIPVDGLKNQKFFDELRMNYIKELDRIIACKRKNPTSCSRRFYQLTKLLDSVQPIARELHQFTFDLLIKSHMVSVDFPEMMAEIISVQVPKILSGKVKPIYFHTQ

GFP-AR [5] = molecular target: T1, GFP-AR; assay: Subnuclear localization of GFP-AR in NIH-3T3-L1 cells; format: cell-based, mouse; parameters: expressed in transfected cells; host or cells: NIH-3T3-L1 cells; conditions: 10^−5 M, FIG. 4

## CC(=O)[C@H]1CCC2C3CCc4c(C)cccc4C3CC[C@@]21C (stereo partly shown) [Compound of formula (Ia)]
PSA mRNA in LNCaP cells
  PSA mRNA (relative ratio to β-actin mRNA): 0.8
[1]
  UCP-1 mRNA (relative ratio to β-actin mRNA): 2.1*
B6 mice on high-fat diet [2]; 16 weeks
  Body weight versus high-fat diet group (in words): significantly lower than in the high-fat diet group
  Increase of serum glucose and serum insulin concentrations due to the high-fat diet (in words): significantly inhibited
B6 mice on high-fat diet [2]; 16 weeks, FIG. 6
  Accumulation of visceral fat (in words): roughly the same as that of the rat of the ordinary diet group
B6 mice on high-fat diet [2]; after 16 weeks, high-fat diet alone 0.46, ordinary diet 0.13
  Serum insulin concentration (average): 0.27^# ng/mL
B6 mice on high-fat diet [2]; after 16 weeks, high-fat diet alone 36.6, ordinary diet 30.7
  Body weight (average): 34.9^### g
B6 mice on high-fat diet [2]; after 16 weeks, high-fat diet alone 113.2, ordinary diet 75
  Serum glucose concentration (average): 82.2^## mg/dL
B6 mice on high-fat diet [3]; 0 min after injection
  Glucose value in glucose tolerance test: 82.2^## mg/dL
B6 mice on high-fat diet [3]; 15 min after injection
  Glucose value in glucose tolerance test: 293.6 mg/dL
B6 mice on high-fat diet [3]; 30 min after injection
  Glucose value in glucose tolerance test: 327.6* mg/dL
B6 mice on high-fat diet [3]; 60 min after injection
  Glucose value in glucose tolerance test: 249.4 mg/dL
B6 mice on high-fat diet [3]; 90 min after injection
  Glucose value in glucose tolerance test: 262.0* mg/dL
B6 mice on high-fat diet [3]; 120 min after injection
  Glucose value in glucose tolerance test: 163.0 mg/dL
GFP-AR [4]
  GFP-AR nuclear translocation and foci (dots) formation: clear foci (dots) were not formed
GFP-AR [5]
  GFP-AR nuclear translocation and foci (dots) formation: formed the subnuclear foci (dots)
